Molecules are shown by their SMILES. “Also recorded” adds a separate entry of the source. Where a SMILES comes first, the peptide text is derived from it. Bridges are numbered along the chain shown (N, C = ends).

Data on one compound can be found in article PMC12116161, “An Elastase Inhibitor ShSPI from Centipede Attenuates Bleomycin-Induced Pulmonary Fibrosis” (Toxins, 2025).

The subject of data set [1] is BLM-induced idiopathic pulmonary fibrosis (IPF) mouse model. The experiment in a line: Histopathologic analysis of the lungs (H&E and Masson staining) of IPF mice. In kind it is in vivo, ICR mice. As to the method: (§1) Animal Model Preparation: The peptide powder was dissolved in pre-cooled saline and filtered to remove bacteria, then a spray needle was attached to a micro-syringe to aspirate the peptide solution. A total of 56 ICR mice were anesthetized by intramuscular injection of avertin. After anesthesia, the mice were fixed supine, the tongue was gently pulled, the vocal folds were exposed with a laryngoscope, the trachea was gently inserted, and the nebulized solution was rapidly pushed and injected. Each mouse was administered 100 μL of a 0.4 mg/mL bleomycin solution via tracheal spray, with the treatment performed once. Seven days after modeling, the mice were randomly grouped for ShSPI treatment based on weight loss scores. An additional 8 mice received the vehicle (normal saline) and were designated as the sham group.
(§2) A total of 48 suitable mice were randomly divided into five groups: the model control group (MC), the positive control group (PC), and the ShSPI low-dose groups (1 mg/kg), medium-dose groups (2 mg/kg), and high-dose groups (4 mg/kg).
(§3) Drug Administration: Starting on day 7 post-modeling, ShSPI peptide treatment groups were anesthetized with intramuscular avertin and received tracheal spray administration of the peptide. The low-dose group was treated with 1 mg/kg ShSPI peptide, the medium-dose group with 2 mg/kg, and the high-dose group with 4 mg/kg. The positive control group, without anesthesia, received 200 mg/kg pirfenidone (IPFD) via oral gavage. All groups were treated once daily for seven consecutive days.
Sample Collection: Twenty-four hours after the final treatment, all ICR mice were euthanized via intramuscular injection of suforane. […]
The samples from experiment 4.1 were then processed using standard protocols for paraffin embedding, and 5 μm thick paraffin sections were prepared. […] Multiple fields were randomly selected, and the severity of alveolar inflammation in each group was quantified according to criteria such as the area of tissue affected by inflammation. […]

A short description of data set [2]: Pharmacokinetic study of ShSPI (plasma, LC-MS/MS). Type of data set: in vivo, mice. Further details: CI/F: unit not given here. As to the method:
Each plasma sample was analyzed by LC-MS/MS, and the raw data were processed by DAS pharmacokinetic v2.1.1 software to obtain pharmacokinetic parameters (Table 3) and blood concentration–time curves (Figure 5).
Grouping and Sampling: SIPF grade Sprague Dawley (SD) healthy rats (male, procured from Hunan Slaughter King Laboratory Animal Co.) were randomly divided into three groups, with three rats in each group. All groups received a single administration of the ShSPI and were fasted for 12 h prior to dosing. The groups included two inhalation groups (1 mg/kg and 2 mg/kg) and an intravenous tail vein injection group (1 mg/kg). Blood samples were collected from the subclavian vein at 5 min, 15 min, 30 min, 1 h, 2 h, 4 h, 8 h, and 24 h post-dosing. A 0.2 mL blood sample was transferred into pre-labeled EDTA-2K anticoagulant tubes and gently inverted to ensure thorough mixing of the anticoagulant with the blood. Samples were immediately placed on ice. Plasma was separated within 1 h by centrifugation at 6800 rpm for 5 min at 4 °C. The supernatant was collected and stored at −20 °C until analysis.
Sample Preparation Before Analysis: Sample preparation was conducted under yellow light in an ice-water bath. For each analysis, 30 μL of standard or experimental sample was mixed with 200 μL of working solution, while blank samples were prepared with an equivalent volume of methanol. The mixture was vortexed thoroughly and centrifuged at 5500 rpm for 10 min. A 150 μL aliquot of the supernatant was mixed with 150 μL of ultrapure water, and the final mixture was subjected to analysis.
Chromatographic and Mass Spectrometry Conditions: Chromatographic separation was performed using an AQ C18 column (2.1 × 50 mm, 5.0 μm). The injection volume was 10 μL. The mobile phase consisted of 0.1% formic acid in water (A) and methanol (B), with the following gradient program: 10% B at 0–0.01 min, 98% B at 0.01–1.8 min, 98% B at 1.8–2.5 min, and 10% B at 2.5–3.0 min. The flow rate was set at 0.6 mL/min. Mass spectrometry analysis was performed using an electrospray ionization (ESI) source in multiple reaction monitoring (MRM) mode.

Data set [3] has as its system BLM-induced idiopathic pulmonary fibrosis (IPF) mouse model. The experiment in a line: Body weight changes in BLM-induced IPF mouse model. In kind it is in vivo, ICR mice. Particulars: tracheal spray once daily for 7 days, BLM-induced IPF mice. The method, then: as §1, §2
Drug Administration: Starting on day 7 post-modeling, ShSPI peptide treatment groups were anesthetized with intramuscular avertin and received tracheal spray administration of the peptide. […]
Body Weight Monitoring: The body weight of the mice was monitored and recorded from the modeling phase to the end of treatment (a total of two weeks).

The test system of data set [4] is MCP-1, IL-6, IL-1β, IFN-γ, IL-10, TGF-β mRNA in lung tissue. The experiment in a line: RT-qPCR of inflammatory factor mRNA in lung tissue of IPF mice. Type of data set: in vivo, ICR mice. Particulars: tracheal spray once daily for 7 days, BLM-induced IPF mice. As to the method:
as §1, §2, §3
The left lobe of the lung was collected from each mouse for total RNA extraction using RNAiso Plus, following the manufacturer’s instructions. The extracted RNA was quantified using a UV spectrophotometer. One microgram of total RNA was reverse transcribed into cDNA using a first-strand cDNA synthesis kit, following the provided protocol. Quantitative PCR (qPCR) was performed on a QuantStudio system using 2× SYBR Green qPCR Master Mix, and β-actin served as the internal control. The PCR reaction utilized a two-step protocol: 95 °C for 15 s, followed by 60 °C for 60 s, repeated for 40 cycles. Gene expression levels were calculated using the 2^−ΔΔCt method.

The mark [5] stands for this setting: ShSPI tracheal spray once daily for 7 days.
The mark [6] stands for this setting: male, Sprague Dawley, inhaled or intranasal, 1 mg/kg ShSPI, single inhalation, plasma, LC-MS/MS, DAS software, mean ± s, n = 3, method SD rats.
Where [7] appears, read: male, Sprague Dawley, inhaled or intranasal, 2 mg/kg ShSPI, single inhalation, plasma, LC-MS/MS, DAS software, mean ± s, n = 3, method SD rats.

One may read the AUC(0-t) as the area under the concentration-time curve up to a stated or last time point. In general, Cmax refers to the peak of the concentration-time curve. Broadly, the MRT is the average time that molecules of a dose stay in the body. Broadly, the Tmax is the time from dosing to the highest level. The term AUC(0-inf) denotes total exposure, with the tail of the curve extrapolated. Usually half-life stands for how long it takes for the measured level to halve. In the case of `CC[C@H](C)[C@@H]1NC(=O)[C@H](C)NC(=O)[C@@H]2CCCN2C(=O)[C@@H]2CSSC[C@H](NC(=O)[C@H](CO)NC(=O)[C@H](CC(N)=O)NC(=O)[C@H](CO)NC(=O)[C@H](Cc3ccc(O)cc3)NC(=O)[C@H](CCSC)NC(=O)[C@H](CCCNC(=N)N)NC(=O)CNC(=O)[C@H](Cc3ccccc3)NC(=O)[C@H](CCC(=O)O)NC(=O)[C@H](CC(=O)O)NC(=O)[C@H](Cc3ccccc3)NC(=O)[C@H](C(C)C)NC(=O)[C@@H]3CCCN3C(=O)[C@H](CCC(N)=O)NC(=O)[C@H](Cc3ccc(O)cc3)NC1=O)C(=O)N[C@@H](CCC(=O)O)C(=O)N[C@@H](CCSC)C(=O)N[C@@H](CCC(N)=O)C(=O)N[C@@H](CCCNC(=N)N)C(=O)N[C@@H](C)C(=O)N[C@@H](CCCNC(=N)N)C(=O)N[C@H](C(=O)N[C@@H](CC(C)C)C(=O)N[C@@H](CCCNC(=N)N)C(=O)NCC(=O)O)CSSC[C@H](N)C(=O)N1CCC[C@H]1C(=O)N[C@@H](CCC(N)=O)C(=O)N[C@@H](C(C)C)C(=O)N2` [ShSPI] (H-CPQVCPAIYQPVFDEFGRMYSNSCEMQRARCLRG-OH; disulfide 1-31, 5-24; N-terminus and C-terminus assumed), in data set [1] (ShSPI 1 mg/kg tracheal spray once daily for 7 days, compared with 2 and 4 mg/kg), the “effect on the model's damage (fibrotic lesions)” value was “less effective”. For the same compound, in data set [1] (setting [5]), the “collagen deposition in the lungs (Masson staining)” value is “substantial inhibition” and the “lung inflammation (H&E staining)” value is on record as “substantial reduction”. This compound also registered a CI/F in data set [2] (2 mg/kg ShSPI, single inhalation, plasma, LC-MS/MS, DAS software, mean ± s, n = 3, table says mice, method SD rats) of 29.00 ± 11.90. Further, the “detectability in vivo (plasma) at 8 h post-administration” value in data set [2] (inhalation, doses of 1 mg/kg and 2 mg/kg, 8 h post-administration, LC-MS/MS) is “detected; also recorded: detectable”. For the same compound, the “detectability in vivo (plasma) at 24 h post-administration” value in data set [2] (inhalation, doses of 1 mg/kg and 2 mg/kg, 24 h post-administration, LC-MS/MS) is recorded as “no longer detectable”. In data set [2] (setting [6]), the AUC(0-t) amounted to 580 ± 294 ng·h/mL, the maximum concentration (Cmax) was determined as 188 ± 64.4 ng/mL and the mean residence time (MRT) came out at 2.86 ± 0.725 h. Further, the time to peak (Tmax) in data set [2] (male, Sprague Dawley, inhaled or intranasal, 1 mg/kg ShSPI, single inhalation, plasma, LC-MS/MS, DAS software, n = 3, method SD rats) turned out to be 1 h. In data set [2] (setting [7]), this compound registered an area under the curve AUC(0-inf) of 1260 ± 422 ng·h/mL, an AUC(0-t) of 1170 ± 415 ng·h/mL, a peak concentration (Cmax) of 347 ± 151 ng/mL and an MRT of 3.1 ± 0.898 h. In data set [2] (setting [7]), this compound showed a half-life of 2.14 ± 0.663 h. For the same compound, in data set [2] (male, Sprague Dawley, inhaled or intranasal, 2 mg/kg ShSPI, single inhalation, plasma, LC-MS/MS, DAS software, n = 3, method SD rats), the time to peak (Tmax) stood at 1 h. Further, in data set [2] (overall assessment in words), the “overall metabolism in mice” value is reported as “moderate”. Also, the body weight recovery entry in data set [3] (ShSPI low-dose group (1 mg/kg)) is reported as “upward trend, albeit with a slower recovery rate”. In data set [3] (ShSPI medium- and high-dose groups (2 and 4 mg/kg)), the body weight recovery result is “comparable to that of the positive control group”. In data set [4] (ShSPI 1–4 mg/kg), the “TGF-β mRNA content in mouse lung tissue” value is recorded as “no significant impact”. Besides, the “mRNA levels of pro-inflammatory cytokines (MCP-1, IL-6, IL-1β, IFN-γ) in lung tissue” value in data set [4] (ShSPI high dose 4 mg/kg, β-actin control) is given as “restored these pro-inflammatory cytokine ShSPI mRNA levels to normal”. Moreover, the “IL-10 mRNA level in lung tissue” value in data set [4] (ShSPI low dose 1 mg/kg, β-actin control) is recorded as “restored the anti-inflammatory cytokine IL-10 mRNA levels to normal”.
